Experiments:
Test in all cases: relative viability (nuclei count vs DMSO), 5 days (fraction); higher = more cells survive
[1] = compound: C1=CC=C2C(=C1)N=C(S2)C(C#N)C3=NC(=NC=C3)NCCC4=CN=CC=C4 + C[C@@H](Oc1cc(-c2cnn(C3CCNCC3)c2)cnc1N)c1c(Cl)ccc(F)c1Cl [Crizotinib] (partner 1 µM)
In short: (§1)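 Each reported value is a median over duplicate plates. It expresses relative viability: treated-well nuclei count divided by vehicle-well nuclei count. Lung cancer cell lines in 1536-well plates were dosed by pin tool a day after seeding, alone with one drug or with a fixed anchor-drug dose plus five library-drug doses (not always all listed) in √10 steps, and nuclei were counted after 5 days.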

[2] = compound: C1=CC=C2C(=C1)N=C(S2)C(C#N)C3=NC(=NC=C3)NCCC4=CN=CC=C4 + CS(=O)(=O)N1CCN(Cc2cc3nc(-c4cccc5[nH]ncc45)nc(N4CCOCC4)c3s2)CC1 [Pictilisib] (partner 1 µM)
In short: as §1

[3] = compound: COc1cc2/c(=N/c3ccc(Br)cc3F)nc[nH]c2cc1OCC1CCN(C)CC1 [Vandetanib] + O=C(CCCCCCC(=O)Nc1ccccc1)NO [Vorinostat] (partner 1 µM)
In short: as §1

[4] = compound: COc1cc(N2CCC(N3CCN(C)CC3)CC2)ccc1Nc1ncc(Cl)c(Nc2ccccc2S(=O)(=O)C(C)C)n1 [NVP-TAE684] + CC(=O)c1c(C)c2cnc(Nc3ccc(N4CCNCC4)cn3)nc2n(C2CCCC2)c1=O [Palbociclib] (partner 0.5 µM)
In short: as §1

Cell Line | relative viability ([1]; first compound 0.005 µM) | relative viability ([1]; first compound 0.01581 µM) | relative viability ([1]; first compound 0.05 µM) | relative viability ([1]; first compound 0.1581 µM) | relative viability ([1]; first compound 0.5 µM) | relative viability ([2]; first compound 0.005 µM) | relative viability ([2]; first compound 0.01581 µM) | relative viability ([2]; first compound 0.05 µM) | relative viability ([2]; first compound 0.1581 µM) | relative viability ([2]; first compound 0.5 µM) | relative viability ([3]; first compound 0.02 µM) | relative viability ([3]; first compound 0.06325 µM) | relative viability ([3]; first compound 0.2 µM) | relative viability ([3]; first compound 0.6325 µM) | relative viability ([3]; first compound 2 µM) | relative viability ([4]; first compound 0.2 µM) | relative viability ([4]; first compound 0.6325 µM) | relative viability ([4]; first compound 2 µM)
COR-L23 | 0.6 | 0.596 | 0.728 | 0.653 | 0.568 | 0.531 | 0.792 | 0.725 | 0.952 | 0.762 | 0.427 | 0.406 | 0.463 | 0.451 | 0.516 | 0.307 | 0.209 | 0.152
HARA | 0.928 | 1.11 | 0.957 | 1.22 | 0.978 | 0.324 | 0.349 | 0.368 | 0.611 | 0.298 | 0.496 | 0.477 | 0.521 | 0.616 | 0.524 | 0.297 | 0.234 | 0.164
LXF-289 | 0.761 | 0.798 | 0.831 | 0.869 | 0.798 | 0.705 | 0.922 | 0.893 | 0.899 | 0.676 | 0.806 | 0.766 | 0.768 | 0.848 | 0.708 | 0.56 | 0.618 | 0.643
201T | 0.978 | 1.03 | 1.02 | 1.07 | 0.995 | 0.7 | 0.69 | 0.621 | 0.662 | 0.698 | 0.886 | 0.876 | 0.959 | 0.904 | 0.957 | 0.358 | 0.333 | 0.312
